One data set concerns the target T1, DNA repair protein REV1 (Homo sapiens, UniProt Q9UBZ9).
T1 sequence (Q9UBZ9 whole entry): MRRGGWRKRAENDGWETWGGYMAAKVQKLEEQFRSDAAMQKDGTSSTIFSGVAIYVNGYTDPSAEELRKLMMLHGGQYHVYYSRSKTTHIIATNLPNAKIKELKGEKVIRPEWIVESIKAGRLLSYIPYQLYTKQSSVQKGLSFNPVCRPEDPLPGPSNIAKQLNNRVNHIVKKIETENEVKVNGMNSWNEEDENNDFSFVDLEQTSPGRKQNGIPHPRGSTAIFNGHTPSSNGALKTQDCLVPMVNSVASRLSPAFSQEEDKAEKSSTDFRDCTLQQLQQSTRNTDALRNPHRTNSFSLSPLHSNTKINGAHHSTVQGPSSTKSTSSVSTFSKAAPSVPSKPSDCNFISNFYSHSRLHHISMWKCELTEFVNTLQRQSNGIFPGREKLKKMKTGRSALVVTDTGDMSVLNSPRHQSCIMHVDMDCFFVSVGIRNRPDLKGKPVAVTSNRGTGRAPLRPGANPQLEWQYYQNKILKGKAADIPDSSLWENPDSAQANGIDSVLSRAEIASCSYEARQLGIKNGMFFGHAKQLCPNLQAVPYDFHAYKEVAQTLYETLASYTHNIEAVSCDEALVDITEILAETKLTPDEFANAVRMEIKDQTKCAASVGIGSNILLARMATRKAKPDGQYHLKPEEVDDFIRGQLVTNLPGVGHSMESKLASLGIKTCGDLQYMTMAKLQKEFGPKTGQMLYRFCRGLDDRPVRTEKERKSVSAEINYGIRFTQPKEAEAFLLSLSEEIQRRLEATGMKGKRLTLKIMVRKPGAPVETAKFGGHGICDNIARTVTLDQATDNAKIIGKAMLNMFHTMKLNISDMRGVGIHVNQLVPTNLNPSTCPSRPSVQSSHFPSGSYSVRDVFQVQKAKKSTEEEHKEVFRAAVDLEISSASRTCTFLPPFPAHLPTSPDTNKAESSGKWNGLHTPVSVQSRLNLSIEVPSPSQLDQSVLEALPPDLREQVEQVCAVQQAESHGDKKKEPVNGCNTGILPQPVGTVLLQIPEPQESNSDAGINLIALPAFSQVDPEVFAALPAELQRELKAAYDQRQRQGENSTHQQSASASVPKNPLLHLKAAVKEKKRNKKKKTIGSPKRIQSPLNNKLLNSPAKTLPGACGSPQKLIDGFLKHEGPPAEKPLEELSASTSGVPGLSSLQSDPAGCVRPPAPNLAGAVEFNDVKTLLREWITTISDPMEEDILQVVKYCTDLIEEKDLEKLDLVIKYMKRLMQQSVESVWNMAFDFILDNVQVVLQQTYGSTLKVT
As to the kind of experiment: Displacement of FAM-labelled polkappa-RIR peptide from recombinant human C-terminal Rev1 (1158 to 1251 residues) expressed in Escherichia coli BL21(DE3) after 1 hr by fluorescence polarization assay. For orientation: In fluorescence polarisation assays a small probe gives low polarisation when free and higher when bound to something large.

Data set [1] addresses T2, DNA repair protein REV1 (Homo sapiens) (UniProt Q9UBZ9).
T2 sequence (whole entry): T1 sequence (Q9UBZ9 whole entry)
As to the kind of experiment: Displacement of FAM-labelled polkappa-RIR peptide from recombinant human C-terminal Rev1 (1158 to 1251 residues) expressed in Escherichia coli BL21(DE3) at 10 uM after 1 hr by fluorescence polarization assay relative to control.

Data set [2] deals with U2OS. As to the kind of experiment: Potentiation of cisplatin-induced cytotoxicity in cisplatin-resistant human U2OS cells assessed as cisplatin GI50 at 50 uM after 72 hrs by MTS assay (reference value: 23.9 +/- 1.9 uM). Format: functional. (Tetrazolium assays rely on reduction of a dye to a coloured formazan, in cell work by metabolically active cells.)
Data set [3] deals with U2OS. As to the kind of experiment: Potentiation of cisplatin-induced cytotoxicity in cisplatin-resistant human U2OS cells assessed as cisplatin GI50 at 25 uM after 72 hrs by MTS assay (reference value: 23.9 +/- 1.9 uM). It is filed as functional.
A short description of data set [4]: Growth inhibition of cisplatin-resistant human U2OS cells after 72 hrs by MTS assay. Format: cell-based.
Data set [5] relates to U2OS. Briefly: Potentiation of cisplatin-induced cytotoxicity in cisplatin-resistant human U2OS cells assessed as increase in cisplatin-induced reduction in colony survival at 20 uM treated for 24 hrs measured after 7 days by Coomassie Brilliant Blue R-250 staining based assay. It is filed as functional, cell-based.
Data set [6] deals with U2OS. Briefly: Potentiation of cisplatin-induced cytotoxicity in cisplatin-resistant human U2OS cells assessed as cisplatin GI50 at 10 uM after 72 hrs by MTS assay (reference value: 23.9 +/- 1.9 uM). It is filed as functional.
Data set [7] can be described thus: Retention time of the compound in human liver microsomes at 10 uM by LC-MS/MS analysis. Format: ADME, microsome. In general terms: Liver microsomes are vesicles of endoplasmic reticulum, rich in cytochrome P450 enzymes.

The source made the active and inactive calls. No cut-off for these calls is given here.

By IC50 is commonly meant the midpoint of a concentration-inhibition curve. As a reminder, the Kd is a measure of binding affinity in units of concentration. What is called Ki is a dissociation constant, usually derived from enzyme kinetics or from competition with a known ligand. Usually inhibition stands for how much of the control response was suppressed. Regarding `CCc1ccc(NC(=O)CN2CCN(c3ccc(OC)cc3)CC2)cc1`, on DNA repair protein REV1, the IC50 is 5.5 µM, the dissociation constant (Kd) is 3.6 µM and the inhibitory constant (Ki) came to 3.6 µM. The inhibition in data set [1] was more than 85%.
As to `O=C(CN1CCN(c2ccc(F)cc2)CC1)Nc1ccccc1`, at DNA repair protein REV1, the IC50 is 28 µM, the equilibrium dissociation constant (Kd) worked out at 42.2 µM and the Ki was determined as 46.6 µM. Further, in data set [1], the inhibition was more than 85%.
As a reminder, the GI50 is the concentration at which growth is held to half of that of the control. Consider `CCS(=O)(=O)N(C)c1ccc(C(=O)N2CCN(c3ccccc3OC)CC2)cc1`, for which, at DNA repair protein REV1, the IC50 came out at 4.6 µM, the Kd worked out at 4.3 µM and the Ki is 4.7 µM. In the data set with U2OS [2], the concentration for 50% growth inhibition (GI50) was determined as 11.9 µM. Besides, the GI50 in the data set with U2OS [3] came out at 13.3 µM. The inhibition in data set [1] is more than 85%. The molecule also gave a GI50 at 72 h in data set [4] of more than 100 µM.
Regarding `COc1cc2c(cc1OC)CN(Cc1ccc(OCc3ccccc3)cc1)CC2`, the IC50 at DNA repair protein REV1 worked out at 11.9 µM. Also, the Kd at DNA repair protein REV1 was 12.6 µM. Further, the inhibition constant (Ki) at DNA repair protein REV1 is 14.5 µM. The concentration for 50% growth inhibition (GI50) in the data set with U2OS [2] amounted to 10.1 µM; with U2OS [3], 13.4 µM; with U2OS [6], 16.5 µM. Moreover, the outcome with U2OS [5] was Active. The inhibition in data set [1] was more than 85%. In data set [4], this molecule gave a GI50 at 72 h of more than 100 µM.
On to `CCCCc1ccc(-n2nnc(C(=O)N(C)C3CCS(=O)(=O)C3)c2C)cc1` (stereo not given), for which, at DNA repair protein REV1, the IC50 came to 5.9 µM, the dissociation constant Kd worked out at 3.6 µM and the Ki turned out to be 4.9 µM. Moreover, the GI50 in the data set with U2OS [2] turned out to be 20.1 µM. In addition, the 50% growth inhibitory concentration (GI50) in the data set on U2OS [3] amounted to 25.7 µM. The inhibition in data set [1] is more than 85%. In data set [4], the 50% growth inhibitory concentration (GI50) at 72 h was more than 100 µM.
For the molecule `CC(=O)N1CCC(C(=O)Nc2sc3c(c2C(N)=O)CCC(C)C3)CC1` (stereo not given), on DNA repair protein REV1, the half-inhibitory concentration (IC50) amounted to 13.2 µM, the Kd came out at 12.6 µM and the inhibition constant Ki stood at 15.7 µM. Further, in data set [1], the inhibition was more than 85%.
The like results for `CCCc1cc(C(=O)OCC)c(NC(=O)C2CCN(C(C)=O)CC2)s1` were, in that order, 5.9 µM, 7.8 µM, 11.6 µM and more than 85%.
Taken in the same sequence, the figures for `Cc1cccc(N2CCN(CC(=O)Nc3ccc(F)cc3)CC2)c1C` were 21.1 µM, 12.4 µM, 14.8 µM and more than 85%.
On to `CCCc1cc(C(=O)OC)c(NC(=O)C2CCNCC2)s1`, for which the Retention_time in data set [7] is listed as 10.58 min.
For the molecule `CCc1cc(C(=O)OC)c(NC(=O)C2CCN(C(C)=O)CC2)s1`, at DNA repair protein REV1, the 50% inhibitory concentration (IC50) worked out at 12.4 µM, the Kd was 23.7 µM and the Ki stood at 28.8 µM. The inhibition in data set [1] was more than 85%.
As for `CC(=O)N1CCC(C(=O)Nc2sc3c(c2C(=O)NC2CC2)CCC(C)C3)CC1` (stereo not given), on DNA repair protein REV1, the 50% inhibitory concentration (IC50) came out at 2.5 µM, the equilibrium dissociation constant (Kd) was 4.4 µM and the Ki is 4.6 µM. For the same molecule, in the data set on U2OS [2], the GI50 was determined as 15.3 µM. Moreover, the outcome in the data set with U2OS [5] was inactive. Also, the 50% growth inhibitory concentration (GI50) with U2OS [3] worked out at 24.4 µM. In data set [1], the inhibition is more than 85%. This molecule showed a GI50 at 72 h in data set [4] of more than 100 µM.
Take `CCc1ccc(NC(=O)CN2CCN(c3ccc(F)cc3)CC2)cc1`: at DNA repair protein REV1, the IC50 stood at 2.5 µM, the dissociation constant (Kd) worked out at 6.5 µM and the Ki was found to be 6.9 µM. The inhibition in data set [1] is more than 85%.
For `N#Cc1ccc(NC(=O)CN2CCN(c3ccc(F)cc3)CC2)cc1`, on DNA repair protein REV1, the IC50 is more than 50 µM and the Kd amounted to 109 µM. The inhibition in data set [1] was more than 85%.
For the molecule `CCn1c2ccccc2c2cc(NC(=O)N3CCC(C(C)=O)CC3)ccc21`, on DNA repair protein REV1, the concentration for half-maximal inhibition (IC50) amounted to 4.6 µM, the dissociation constant (Kd) was 6.9 µM and the Ki worked out at 8.9 µM. In addition, in data set [1], the inhibition is more than 85%.
On to `COC(=O)c1cc(C)sc1NC(=O)C1CCN(C(C)=O)CC1`, for which, at DNA repair protein REV1, the IC50 is 9.4 µM, the equilibrium dissociation constant (Kd) worked out at 8.2 µM and the Ki was 7.4 µM. For the same molecule, the inhibition in data set [1] was more than 85%.
Take `CCCC1CCc2c(sc(NC(=O)C3CCN(C(C)=O)CC3)c2C(N)=O)C1` (stereo not given): on DNA repair protein REV1, the IC50 was found to be 4.9 µM, the Kd was found to be 9.5 µM and the inhibition constant (Ki) was 11.9 µM. In data set [1], the inhibition was more than 85%.
In data set [7], `CCCc1cc(C(=O)O)c(NC(=O)C2CCN(C(C)=O)CC2)s1` displayed a Retention_time of 3.8 min.
For the molecule `COc1ccc(OC)c(-c2csc(N3CCN(C(=O)c4ccco4)CC3)n2)c1`, at DNA repair protein REV1, the half-maximal inhibitory concentration (IC50) was 6.2 µM, the Kd stood at 3.7 µM and the Ki worked out at 4.8 µM. The concentration for 50% growth inhibition (GI50) in the data set with U2OS [2] was 11.8 µM. Further, the GI50 with U2OS [3] is 11.9 µM. Also, in data set [1], the inhibition was more than 85%. Further, in data set [4], the GI50 at 72 h is more than 100 µM.
As to `CC(=O)C(C)n1c(CN2CCN(c3cccc(Cl)c3)CC2)nc2c1c(=O)n(C)c(=O)n2C` (stereo not given), at DNA repair protein REV1, the IC50 came to 2.5 µM. Besides, the Kd at DNA repair protein REV1 came out at 2.1 µM. Besides, at DNA repair protein REV1, the inhibition constant (Ki) was determined as 2 µM. The values for the GI50 with U2OS [2], in the data set on U2OS [3] and in the data set on U2OS [6] were 7.8 µM, 12.3 µM and 19.3 µM, respectively. In addition, in data set [1], the inhibition is more than 85%. This molecule also yielded a GI50 at 72 h in data set [4] of more than 100 µM.
Turning to `CC(=O)N1CCC(C(=O)Nc2sc3c(c2C(=O)NC2CC2)CCCC3)CC1`, on DNA repair protein REV1, the concentration for half-maximal inhibition (IC50) amounted to 21.5 µM, the Kd came to 26.6 µM and the inhibitory constant (Ki) worked out at 31.5 µM. The inhibition in data set [1] was more than 85%.
Consider `Cc1ccc(C(=O)N2CCN(c3ccccc3)CC2)cc1S(=O)(=O)N1CCOCC1`, for which, on DNA repair protein REV1, the IC50 was found to be 3.5 µM, the Kd stood at 2.9 µM and the Ki came out at 3 µM. For the same molecule, the concentration for 50% growth inhibition (GI50) with U2OS [2] was determined as 28.2 µM. Moreover, in data set [1], the inhibition was more than 85%. In data set [4], the concentration for 50% growth inhibition (GI50) at 72 h is more than 100 µM.
With `CCc1ccc(NC(=O)CN2CCN(c3ccccc3)CC2)cc1`, at DNA repair protein REV1, the IC50 was more than 50 µM and the dissociation constant Kd came out at 49.5 µM. Also, in data set [1], the inhibition was more than 85%.
As for `CC(C)(C)C(=O)N1CCN(c2ccc(NC(=O)c3cccnc3)cc2Cl)CC1`, at DNA repair protein REV1, the 50% inhibitory concentration (IC50) is 12.3 µM, the Kd is 18.2 µM and the inhibition constant (Ki) is 19 µM. In the data set with U2OS [2], the GI50 came to 25.9 µM. Besides, in data set [1], the inhibition was more than 85%. The molecule also displayed a GI50 at 72 h in data set [4] of more than 100 µM.

(Values after ChEMBL document CHEMBL4229469, “Small molecule scaffolds that disrupt the Rev1-CT/RIR protein-protein interaction” (Bioorg Med Chem, 2018).)
